{
  "source": "patent US8853164B2",
  "about": "“Oligopeptide improving differentiation of osteoblasts” (Osstemimplant Co., Ltd., priority 2010, dated 2014)",
  "key": {"MG63 cells [1]": {"test_system": "MG63 cells", "assay": "Calcification ability assay (Alizarin red S staining)", "format": "cell-based", "settings": "Day 14, Alizarin red S staining, relative to PEP111", "description": "(§1) The effect of the oligopeptide disclosed herein on osteoblastic differentiation was examined by comparing ALP (alkaline phosphatase) activity as an initial differentiation marker of osteoblasts. In order to compare the differentiation ability of osteoblasts, MG63 cells were distributed to a 24-well plate at a concentration of 1×10^5 cells and incubated for 1 day. Then, the cell was treated with each of the PEP7 oligopeptide disclosed herein, and positive controls BMP-2 and PEP111 in a differentiation culture medium and incubated in a 37° C. CO2 incubator. The medium was replaced with a fresh one at 2-day intervals, the ALP activity was measured at Day 3 and 8 after the cultivation (FIG. 2).\nIn order to examine whether the oligopeptide disclosed herein can successfully induce osteogenic differentiation, extracellular matrix calcification was observed. The cultivation was carried out according to the same conditions as described above. At Day 14 and 21, the culture solution was harvested and subjected to Alizarin red S staining (FIG. 5)."}, "MG63 cells [2]": {"test_system": "MG63 cells", "assay": "Initial cell differentiation ability assay (ALP activity)", "format": "cell-based", "settings": "differentiation culture medium, measured at Day 3 and 8, relative to PEP111", "description": "as §1"}, "[3]": {"test_system": "BMP-specific receptor (BMPR-IA or BMPR-II)", "assay": "BMP specific binding assay (ELISA, absorbance at 595 nm)", "settings": "PEP7 1 μg/well coated, BMPR-IA or BMPR-II 1 μg/well; relative to PEP111", "description": "PEP7 (1 μg/well) was added to an ELISA plate and incubated at 4° C. for 12 hours. After PEP7 was coated on the plate, BMPR-IA or BMPR-II (1 μg/well) was added thereto and reacted at room temperature for 2 hours, to obtain a PEP7-BMP receptor complex. A primary antibody specific for a BMP receptor (0.5 μg BMR-IA, BMPR-II) was added to the complex and reacted at room temperature for 1 hour. A secondary antibody (BMPR-IA or BMPR-II-Fc Ab-HRP) was then added to the resulting mixture and reacted at room temperature for 1 hour. After ABTS was added to the resulting mixture and reacted at room temperature for 30 minutes, an absorbance of the resulting mixture was measure at 595 nm (FIG. 1, wherein PEP111(A) means the sequence whose 9th amino acid was alanine, PEP111(P) means the sequence whose alanine was replaced with proline, and PEP111(T) means the sequence whose alanine was replaced with threonine)."}, "MG63 cells [4]": {"test_system": "MG63 cells", "assay": "Late cell differentiation ability assay (osteopontin production, human ELISA kit)", "format": "cell-based", "settings": "culture solution at Day 14, relative to PEP111", "description": "as §1\n(§2) The effect of the PEP7 oligopeptide on osteoblastic differentiation was examined by comparing the production amount of osteocalcin and osteopontin as a late differentiation marker of osteoblasts. The cultivation was carried out according to the same conditions as described above. At Day 14, the culture solution was harvested, and the amount of osteocalcin and osteopontin therein was measured by using a human ELISA kit (FIGS. 3 and 4)."}, "MG63 cells [5]": {"test_system": "MG63 cells", "assay": "Late cell differentiation ability assay (osteocalcin production, human ELISA kit)", "format": "cell-based", "settings": "culture solution at Day 14, relative to PEP111", "description": "as §1, §2"}},
  "data": [
    {"sequence": "KIPKPSSVPTELSAISMLYL (PEP7)", "values": [
      {"measurement": "calcification ability, higher than PEP111", "setting": "MG63 cells [1]", "result": "about 19%"},
      {"measurement": "ALP (alkaline phosphatase) activity, higher than PEP111", "setting": "MG63 cells [2]", "result": 20, "unit": "%"},
      {"measurement": "binding affinity to a BMP-specific receptor, higher than PEP111", "setting": "[3]", "result": "about 23%"},
      {"measurement": "osteopontin production, more than PEP111", "setting": "MG63 cells [4]", "result": "≥ 21", "unit": "%"},
      {"measurement": "osteocalcin production, more than PEP111", "setting": "MG63 cells [5]", "result": "≥ 14", "unit": "%"}
    ]}
  ]
}
